# Results taken from patent US12077503B2, “Substituted cyclic amides and their use as herbicides” (FMC CORPORATION, priority 2015, dated 2024).
# Read-outs that look alike come from different tables or passages of the source.
# How the values were obtained:
# Test in all cases: Test A postemergence
# Type in all cases: in vivo
# [1] = test system: barnyardgrass (Echinochloa crus-galli); conditions: Echinochloa crus-galli, post-emergence, 240 h, postemergence; for pest or weed control at 125 g/ha: 125 g ai/ha; for pest or weed control at 500 g/ha: 500 g ai/ha
# How it was run: (§1)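 Visual injury, scored on a 0–100 scale relative to untreated controls, was recorded about 10 d after application. Treatments were a preemergence soil spray over planted seeds or a postemergence spray on plants at the one- to two-leaf stage, 2 to 10 cm tall, all in loam soil–sand blend in the greenhouse.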
# [2] = test system: pigweed (Amaranthus retroflexus); conditions: Amaranthus retroflexus, post-emergence, 240 h, postemergence; for pest or weed control at 125 g/ha: 125 g ai/ha; for pest or weed control at 500 g/ha: 500 g ai/ha, 0 to 100 scale, 0 is no effect, 100 is complete control
# How it was run: as §1
# [3] = test system: giant foxtail (Setaria faberii); conditions: Setaria faberi, post-emergence, 240 h, postemergence; for pest or weed control at 125 g/ha: 125 g ai/ha; for pest or weed control at 500 g/ha: 500 g ai/ha
# How it was run: as §1
# [4] = test system: blackgrass (Alopecurus myosuroides); conditions: Alopecurus myosuroides, post-emergence, 240 h, postemergence; for pest or weed control at 125 g/ha: 125 g ai/ha; for pest or weed control at 500 g/ha: 500 g ai/ha
# How it was run: as §1
# corn (Zea mays) = conditions: Zea mays, post-emergence, 240 h, postemergence; for plant injury at 125 g/ha: 125 g ai/ha; for plant injury at 500 g/ha: 0 to 100 scale, 0 is no effect, 100 is complete control
# How it was run: as §1
# [5] = visual injury on 0 to 100 scale (0 no effect, 100 complete control), approx. 10 d, read-out: Barnyardgrass plant response rating
# [6] = visual injury on 0 to 100 scale (0 no effect, 100 complete control), approx. 10 d, read-out: Pigweed plant response rating
# [7] = visual injury on 0 to 100 scale (0 no effect, 100 complete control), approx. 10 d, read-out: Foxtail, Giant plant response rating
# [8] = visual injury on 0 to 100 scale (0 no effect, 100 complete control), approx. 10 d, read-out: Blackgrass plant response rating
# [9] = visual injury on 0 to 100 scale (0 no effect, 100 complete control), approx. 10 d, read-out: Corn plant response rating
# [10] = 0 to 100 scale, 0 is no effect, 100 is complete control, read-out: Barnyardgrass plant response rating
# [11] = read-out: Pigweed plant response rating
# [12] = 0 to 100 scale, 0 is no effect, 100 is complete control, read-out: Foxtail, Giant plant response rating
# [13] = 0 to 100 scale, 0 is no effect, 100 is complete control, read-out: Blackgrass plant response rating
# [14] = 500 g ai/ha, read-out: Corn plant response rating
# [15] = visual injury vs untreated controls after approx. 10 d, 0 = no effect, 100 = complete control, read-out: Pigweed plant response rating (0 to 100 scale)
# [16] = visual injury rating after approximately 10 d, read-out: Barnyardgrass plant response rating (0 to 100 scale, 0 no effect, 100 complete control)
# [17] = visual injury rating after approximately 10 d, read-out: Pigweed plant response rating (0 to 100 scale, 0 no effect, 100 complete control)
# [18] = visual injury rating after approximately 10 d, read-out: Foxtail, Giant plant response rating (0 to 100 scale, 0 no effect, 100 complete control)
# [19] = visual injury rating after approximately 10 d, read-out: Blackgrass plant response rating (0 to 100 scale, 0 no effect, 100 complete control)
# [20] = visual injury rating after approximately 10 d, read-out: Corn plant response rating (0 to 100 scale, 0 no effect, 100 complete control)
# [21] = visual injury vs untreated controls after approx. 10 d, 0 = no effect, 100 = complete control, read-out: Foxtail, Giant plant response rating (0 to 100 scale)
# [22] = visual injury vs untreated controls after approx. 10 d, 0 = no effect, 100 = complete control, read-out: Blackgrass plant response rating (0 to 100 scale)
# [23] = visual injury vs untreated controls after approx. 10 d, 0 = no effect, 100 = complete control, read-out: Corn plant response rating (0 to 100 scale)
Compound,"pest or weed control at 500 g/ha [2, 11] [%]","pest or weed control at 500 g/ha [3, 12] [%]","pest or weed control at 500 g/ha [4, 13] [%]",plant injury at 500 g/ha (corn (Zea mays); [14]) [%],"pest or weed control at 125 g/ha [1, 16] [%]","pest or weed control at 125 g/ha [2, 17] [%]","pest or weed control at 125 g/ha [3, 18] [%]","pest or weed control at 125 g/ha [4, 19] [%]",plant injury at 125 g/ha (corn (Zea mays); [20]) [%],further results
O=C(Nc1ccccc1F)[C@H]1C(=S)NC[C@@H]1c1ccc(C(F)(F)F)cc1 (racemic) [Compound 1047],,,,,,,,,,"pest or weed control at 125 g/ha [1, 5]: 40%; pest or weed control at 500 g/ha ([1]; visual injury, 0 to 100 scale (0 no effect, 100 complete control), approx. 10 d, read-out: Plant response rating, Barnyardgrass): 80%; pest or weed control at 125 g/ha [2, 6]: 0%; pest or weed control at 125 g/ha [3, 7]: 50%; pest or weed control at 500 g/ha ([3]; visual injury, 0 to 100 scale (0 no effect, 100 complete control), approx. 10 d, read-out: Plant response rating, Foxtail, Giant): 80%; pest or weed control at 125 g/ha [4, 8]: 0%; pest or weed control at 500 g/ha ([4]; visual injury, 0 to 100 scale (0 no effect, 100 complete control), approx. 10 d, read-out: Plant response rating, Blackgrass): 0%; plant injury at 125 g/ha (corn (Zea mays); [9]): 0%; Corn plant response rating (crop injury, 0 = no effect, 100 = complete kill) at 500 g/ha (corn (Zea mays); 500 g ai/ha, visual injury, 0 to 100 scale (0 no effect, 100 complete control), approx. 10 d): 0%"
Cc1ccc([C@H]2CNC(=O)[C@]2(Br)C(=O)Nc2cccc(F)c2F)cc1F (racemic) [Compound 1073],20,40,30,50,,,,,,"pest or weed control at 125 g/ha [1, 5]: 70%; pest or weed control at 500 g/ha [1, 10]: 90%; pest or weed control at 125 g/ha [2, 6]: 0%; pest or weed control at 125 g/ha [3, 7]: 0%; pest or weed control at 125 g/ha [4, 8]: 0%; plant injury at 125 g/ha (corn (Zea mays); [9]): 20%"
C/C=C/N1C[C@@H](c2cccc(C(F)(F)F)c2)[C@H](C(=O)Nc2ccccc2F)C1=O (racemic) [Compound 1094],20,80,30,0,,,,,,"pest or weed control at 125 g/ha [1, 5]: 40%; pest or weed control at 500 g/ha [1, 10]: 80%; pest or weed control at 125 g/ha [2, 6]: 0%; pest or weed control at 125 g/ha [3, 7]: 30%; pest or weed control at 125 g/ha [4, 8]: 0%; plant injury at 125 g/ha (corn (Zea mays); [9]): 0%"
CN1C[C@H](c2ccc(C(F)(F)F)cc2)[C@@](F)(C(=O)Nc2cccc(F)c2F)C1=O (racemic) [Compound 1151],80,80,60,80,,,,,,"pest or weed control at 125 g/ha [1, 5]: 80%; pest or weed control at 500 g/ha [1, 10]: 90%; pest or weed control at 125 g/ha [2, 15]: 20%; pest or weed control at 125 g/ha [3, 7]: 70%; pest or weed control at 125 g/ha [4, 8]: 30%; plant injury at 125 g/ha (corn (Zea mays); [9]): 60%"
CC(C)c1cccc([C@H]2CN(C)C(=O)[C@@H]2C(=O)Nc2ccccc2S(C)(=O)=O)c1 [Compound 820],,,,,90,20,90,40,30,
CC(C)c1cccc([C@H]2CN(C)C(=O)[C@@H]2C(=O)Nc2ccc(F)cc2F)c1 [Compound 821],,,,,90,0,80,70,40,
CN1C[C@H](c2cccc(F)c2)[C@@H](C(=O)Nc2ccccc2F)C1=O [Compound 822],,,,,90,0,90,0,20,
Cc1c(F)cccc1NC(=O)[C@H]1C(=O)NC[C@@H]1c1cccc(C(F)(F)F)c1 [Compound 826],,,,,100,30,90,80,80,
Cc1cc(F)ccc1NC(=O)[C@H]1C(=O)NC[C@@H]1c1cccc(C(F)(F)F)c1 [Compound 828],,,,,70,0,90,50,40,
Cc1c(F)ccc([C@H]2CN(C)C(=O)[C@@H]2C(=O)Nc2ccccc2F)c1F [Compound 833],,,,,90,0,90,40,20,
Cc1c(F)ccc([C@H]2CN(C)C(=O)[C@@H]2C(=O)Nc2ccc(F)c(F)c2F)c1F [Compound 836],,,,,100,30,90,70,70,
O=C1NC[C@H](c2cc(F)c(C(F)(F)F)c(F)c2)[C@H]1C(=O)Nc1ccc(F)cc1F [Compound 840],,,,,80,0,90,,30,
Cc1c(F)ccc([C@H]2CN(C)C(=O)[C@@H]2C(=O)Nc2ccccc2C(F)(F)F)c1F [Compound 841],,,,,80,0,90,30,0,
CCOc1ccc([C@H]2CNC(=O)[C@@H]2C(=O)Nc2ccccc2F)cc1 [Compound 906],,,,,0,0,0,,0,
Cc1c(F)cccc1NC(=O)[C@H]1C(=O)N(C)C[C@@H]1c1ccc(C(F)(F)F)nc1 [Compound 1197],70,90,50,90,,,,,,"pest or weed control at 125 g/ha [2, 15]: 50%; pest or weed control at 125 g/ha [3, 21]: 90%; pest or weed control at 125 g/ha [4, 22]: 50%; plant injury at 125 g/ha (corn (Zea mays); [23]): 80%"
COc1cc(C(F)(F)F)ccc1[C@H]1CNC(=O)[C@@H]1C(=O)Nc1ccccc1F [Compound 1202],20,90,40,30,,,,,,"pest or weed control at 125 g/ha [2, 15]: 0%; pest or weed control at 125 g/ha [3, 21]: 70%; pest or weed control at 125 g/ha [4, 22]: 0%; plant injury at 125 g/ha (corn (Zea mays); [23]): 20%"
COc1ccc([C@H]2CN(C)C(=O)[C@@H]2C(=O)Nc2cccc(F)c2F)c(OC)c1 [Compound 1209],0,90,30,0,,,,,,"pest or weed control at 125 g/ha [2, 15]: 0%; pest or weed control at 125 g/ha [3, 21]: 80%; pest or weed control at 125 g/ha [4, 22]: 0%; plant injury at 125 g/ha (corn (Zea mays); [23]): 0%"
COc1cc([C@H]2CN(C)C(=O)[C@@H]2C(=O)Nc2cccc(F)c2F)cc(OC)c1OC [Compound 1210],0,90,50,50,,,,,,"pest or weed control at 125 g/ha [2, 15]: 0%; pest or weed control at 125 g/ha [3, 21]: 90%; pest or weed control at 125 g/ha [4, 22]: 0%; plant injury at 125 g/ha (corn (Zea mays); [23]): 0%"
